Experimental data from patent EP1144412B1, “IMMUNOSUPPRESSIVE EFFECTS OF PTERIDINE DERIVATIVES” (4 AZA Bioscience nv, priority 1998, dated 2000).
Read-outs that look alike come from different tables or passages of the source.

Tests used:
[1] = tested on: Highly purified T cells; experiment: T cell proliferation induced by anti-CD28 mAb + PMA (BrdU incorporation); assay type: cell-based, Human; details: Homo sapiens, T-cell
Text: (§1) Various models may be used for testing an immunosuppressive effect. In vivo, for example, different transplantation models are available. They are strongly influenced by different immunogenicities, depending on the donor and recipient species used and depending on the nature of the transplanted organ. The survival time of transplanted organs can thus be used to measure the suppression of the immune response. In vitro, there exist also various models. The most used are lymphocyte activation tests. Usually activation is measured via lymphocyte proliferation. Inhibition of proliferation thus always means immunosuppression under the experimental conditions applied. There exist different stimuli for lymphocyte activation: • coculture of lymphocytes of […] (MLR = mixed lymphocyte reaction): lymphocytes expressing different minor and major antigens of the HLA-DR type (= alloantigens) activate each other non-specifically. • CD3 assay: here there is an activation of the T-lymphocytes via an exogenously added antibody (OKT3). This antibody reacts against the CD3 molecule located on the lymphocyte membrane. This molecule has a costimulatory function. […] This molecule is also located on the lymphocyte membrane, and delivers strong costimulatory signals.
(§2) T cells were purified by removing non-T cells. Briefly,monocytes were removed by cold agglutination. The resulting lymphoid cells were further purified by a cell enrichment immunocolumn [Cellect Human T (Biotex, Edmonton, Alberta, Canada)] by a process of negative selection.
(§3) Measurements of T cell proliferations induced by anti-CD3 mAb + PMA or anti-CD28 mAb + PMA
(§4) Highly purified T cells (10^6/ml) were stimulated by immobilized anti-CD3 àr anti-CD28 mAb in the presence of PMA. Anti-CD3 mAb (CLB-CD3; CLB, Amsterdam, The Netherlands) were fixed on the 96-microwell plates by incubating the wells with 50 µl of mAb solution (1/800 dilution in culture medium). Anti-CD28 mAb (CLB-CD28; CLB, Amsterdam, The Netherlands) 50 µl (1/650 dilution in culture medium) was added directly to the wells. Further, 20 µl PMA (Sigma, St. Louis, MO, USA) solution (final concentration: 0.5 ng/ml) was added. Subsequently, 20 µl of immunosuppressants were added by serial dilution in triplicate wells. Finally 100 µl of the T cell suspension (10^6/ml) was added. After 48-hour incubation at 37EC in 5% CO2 20 Φl BrdU (100 ΦM solution) (Cell Proliferation Elisa, Boehringer-Mannheim Belgium) was added to each well. After a further overnight incubation the T cell proliferation was measured using a colorimetric immunoassay for qualification of cell proliferation based on measurements of the incorporation of BrdU during DNAsynthesis. The optical density (OD) was measured by a Behring EL311 plate reader at 450 nm (reference wavelength: 690 nm). The percent suppression of proliferation by drugs was counted using the formula: Per cent inhibition =((OD + drugs) - (OD Cult. Med.))/((OD - drugs) - (OD Cult. Med.))x 100 [formula]

[2] = tested on: Highly purified T cells; experiment: T cell proliferation induced by anti-CD3 mAb + PMA (BrdU incorporation); assay type: cell-based, Human; details: Homo sapiens, T-cell
Text: as §1, §2, §3, §4

[3] = tested on: Peripheral blood mononuclear cells (PBMC); experiment: Mixed lymphocyte reaction (MLR), [3H]-thymidine incorporation; assay type: cell-based; details: Homo sapiens
Text: as §1
Peripheral blood mononuclear cells (PBMC) were isolated from heparinized peripheral blood by density gradient centrifugation over Lymphoprep (Nycomed, Maorstua, Norway). Allogeneic PBMC or EBV-transformed human B cells [RPMI1788 (ATCC name CCL156)] which strongly express B7-1 and B7-2 were used as stimulator cells after irradiation with 30 Gy. MLR was performed in triplicate wells. After 5 days incubation at 37EC, 1 µCi [^3H]-thymidine was added to each cup. After a further 16 hours incubation, cells were harvested and counted in a β-counter.
The percent suppression of proliferation by drugs was counted using the formula Percent inhibition =((cpm + drugs) - cpm Cult. Med)/((cpm - drugs) - cpm Cult. Med.)x 100 [formula]

[4] = untitled structure table, IC50 subranges, read-out: aCD28
[5] = untitled structure table, IC50 subranges, read-out: aCD3
[6] = untitled structure table, IC50 subranges, read-out: MLR
[7] = Table IV, known pteridine derivatives, IC50 subranges, read-out: aCD28
[8] = Table IV, known pteridine derivatives, IC50 subranges, read-out: aCD3
[9] = Table IV, known pteridine derivatives, IC50 subranges, read-out: MLR
[10] = Table II, read-out: IC50 in µM of pteridine derivative aCD28
[11] = untitled structure table, no unit printed there, same values in Table II as IC50 in µM, read-out: aCD28
[12] = Table II, read-out: IC50 in µM of pteridine derivative ACD3
[13] = untitled structure table, no unit printed there, same values in Table II as IC50 in µM, read-out: aCD3
[14] = Table II, read-out: IC50 in µM of pteridine derivative MLR
[15] = untitled structure table, no unit printed there, same values in Table II as IC50 in µM, read-out: MLR
[16] = Table III, comparison immunosuppressants, read-out: IC50 aCD28
[17] = Table III, comparison immunosuppressants, read-out: IC50 aCD3
[18] = Table III, comparison immunosuppressants, read-out: IC50 MLR

Row | Compound | IC50 [1, 10] | IC50 [1, 11] | IC50 [2, 12] | IC50 [2, 13] | IC50 [3, 14] | IC50 [3, 15] | further results
1 | COc1cc(-c2cnc3nc(N)nc(N(Cc4ccccc4)Cc4ccccc4)c3n2)cc(OC)c1OC [Compound 50, 2-amino-4-dibenzylamino-6-(3,4,5-trimethoxyphenyl)pteridine] |  |  |  |  |  |  | IC50 [1, 4]: 1 to 15 µM; IC50 [2, 5]: 1 to 15 µM; IC50 [3, 6]: 1 to 15 µM
2 | CC(C)C(=O)NCc1cnc2nc(N)nc(N)c2n1 [CH2 NH CO CH (CH3)2, reference compound] |  |  |  |  |  |  | IC50 [1, 7]: > 151 µM; IC50 [2, 8]: > 151 µM; IC50 [3, 9]: > 151 µM
3 | CNCc1cnc2nc(N)[nH]c(=O)c2n1 [CH2NHCH3, reference compound] |  |  |  |  |  |  | IC50 [1, 7]: > 151 µM; IC50 [2, 8]: > 151 µM; IC50 [3, 9]: > 151 µM
4 | CCCN(CCC)c1nc(N)nc2ncc(-c3ccc(OC)c(OC)c3)nc12 [Compound 32, 2-amino-4-dipropylamino-6-(3,4-dimethoxyphenyl)pteridine] | 0.7 µM | 0.7 µM | 0.8 µM | 0.8 µM | 2.2 µM | 2.2 µM | 
5 | Nc1nc(N2CCCCC2)c2nc(-c3ccc(Cl)cc3)cnc2n1 [Compound 38, 2-amino-4-piperidino-6-(4-chlorophenyl)pteridine] | 25 µM | 25 µM | 70 µM | 70 µM | 15 µM | 15 µM | 
6 | COc1ccc(-c2cnc3nc(N)nc(N4CCOCC4)c3n2)cc1OC [Compound 36, 2-amino-4-morpholino-6-(3,4-dimethoxyphenyl)pteridine] | 0.3 µM | 0.3 µM | 0.4 µM | 0.4 µM | 0.1 µM | 0.1 µM | 
7 | CO[C@H]1C[C@@H]2CC[C@@H](C)[C@@](O)(O2)C(=O)C(=O)N2CCCC[C@H]2C(=O)O[C@H]([C@H](C)C[C@@H]2CC[C@@H](O)[C@H](OC)C2)CC(=O)[C@H](C)/C=C(\C)[C@@H](O)[C@@H](OC)C(=O)[C@H](C)C[C@H](C)/C=C/C=C/C=C/1C [Rapamycin, reference compound] |  |  |  |  |  |  | IC50 [1, 16]: 0.001 µM; IC50 [2, 17]: 0.001 µM; IC50 [3, 18]: 0.001 µM
8 | Nc1nc(NCCO)nc2ncc(-c3ccccc3)nc12 [Compound 10, 2-hydroxyethylamino-4-amino-6-phenylpteridine] | 125 µM | 125 µM | 125 µM | 125 µM | 125 µM | 125 µM | 
9 | Cc1nc2nc(N)nc(N)c2nc1-c1ccccc1 [Compound 6, 2,4-diamino-6-phenyl-7-methylpteridine] | > 200 µM | > 200 µM | > 200 µM | > 200 µM | > 200 µM | > 200 µM | 
10 | COc1nc2nc(N)nc(OC)c2nc1C=Cc1ccccc1 [Compound 3, 2-amino-4-methoxy-6-styryl-7-methoxypteridine] | 100 µM | 100 µM | 160 µM | 160 µM | 25 µM | 25 µM | 
11 | Cc1ccc(-c2cnc3nc(N)nc(N)c3n2)cc1 [Compound 7, 2,4-diamino-6-(4-tolyl)pteridine] | 25 µM | 25 µM | 110 µM | 110 µM | > 200 µM | > 200 µM | 
12 | Nc1nc(N(Cc2ccccc2)Cc2ccccc2)c2nc(-c3ccc(Cl)cc3)cnc2n1 [Compound 26, 2-amino-dibenzylamino-6-(4-chlorophenyl) pteridine] | 20 µM | 20 µM | 75 µM | 75 µM | 100 µM | 100 µM | 
13 | CN(C)c1nc(N)nc2ncc(-c3ccccc3)nc12 [Compound 14, 2-amino-4-dimethylamino-6-phenylpteridine] | 15 µM | 15 µM | 15 µM | 15 µM | 5 µM | 5 µM | 
14 | COc1ccc(-c2cnc3nc(N)nc(N4CCN(C)CC4)c3n2)cc1 [Compound 43, 2-amino-4-N-methylpiperazino-6-(4-methoxyphenyl)pteridine] | 4.2 µM | 4.2 µM | 11.7 µM | 11.7 µM | 12.3 µM | 12.3 µM | 
15 | Nc1nc(N2CCNCC2)c2nc(-c3ccccc3)cnc2n1 [Compound 46, 2-amino-4-piperazino-6-phenylpteridine] | 5 µM | 5 µM | 11.7 µM | 11.7 µM | 12 µM | 12 µM | 
16 | Cc1ccc(-c2cnc3nc(N)nc(N(C)C)c3n2)cc1 [Compound 15, 2-amino-4-dimethylamino-6-(4-tolyl)pteridine] | 3.9 µM | 3.9 µM | 4.5 µM | 4.5 µM | 3.6 µM | 3.6 µM | 
17 | CN1CCN(c2nc(N)nc3ncc(-c4ccccc4)nc23)CC1 [Compound 41, 2-amino-4-N-methylpiperazino-6-phenylpteridine] | 25 µM | 25 µM | 40 µM | 40 µM | 15 µM | 15 µM | 
18 | COCc1cnc2nc(N)nc(N)c2n1 [CH2 O CH3, reference compound] |  |  |  |  |  |  | IC50 [1, 7]: > 151 µM; IC50 [2, 8]: > 151 µM; IC50 [3, 9]: > 151 µM
19 | COc1ccc(-c2cnc3nc(N)nc(N(Cc4ccccc4)Cc4ccccc4)c3n2)cc1OC [Compound 28, 2-amino-4-dibenzylamino-6-(3,4-dimethoxyphenyl) pteridine] | 3.2 µM | 3.2 µM | 4.3 µM | 4.3 µM | 3.5 µM | 3.5 µM | 
20 | COc1ccc(-c2cnc3nc(NCCO)nc(N)c3n2)cc1 [Compound 12, 2-hydroxyethylamino-4-amino-6-(4-methoxyphenyl)pteridine] | 160 µM | 160 µM | > 200 µM | > 200 µM | > 200 µM | > 200 µM | 
21 | CN(Cc1cnc2nc(N)nc(N)c2n1)c1ccc(C(=O)N[C@@H](CCC(=O)O)C(=O)O)cc1 [MTX, methatroxate, reference compound] |  |  |  |  |  |  | IC50 [1, 16]: > 200 µM; IC50 [2, 17]: > 200 µM; IC50 [3, 18]: 10 µM
22 | CCOc1nc(N)nc2ncc(-c3ccccc3)nc12 [Compound 61, 2-amino-4-ethoxy-6-phenylpteridine] |  |  |  |  |  |  | IC50 [1, 4]: 1 to 15 µM; IC50 [2, 5]: 1 to 15 µM; IC50 [3, 6]: 1 to 15 µM
23 | CCCN(CCC)c1nc(N)nc2ncc(-c3ccc(Cl)cc3)nc12 [Compound 30, 2-amino-4-dipropylamino-6-(4-chlorophenyl)pteridine] | 6.7 µM | 6.7 µM | 9.7 µM | 9.7 µM | 13 µM | 13 µM | 
24 | CCCNc1nc(N)nc2ncc(-c3ccccc3)nc12 [Compound 62, 2-amino-4-propylamino-6-phenylpteridine] |  |  |  |  |  |  | IC50 [1, 4]: 16 to 150 µM; IC50 [2, 5]: 16 to 150 µM; IC50 [3, 6]: 1 to 15 µM
